Test results published in patent US20160160224A1, “CRYPTOSPORIDIUM TRANSFECTION METHODS AND TRANSFECTED CRYPTOSPORIDIUM CELLS” (UNIVERSITY OF GEORGIA RESEARCH FOUNDATION, INC., priority 2013, published 2016).

Test system: C. parvum
Assay: Nluc luciferase assay of transfected C. parvum cultured in HCT-8 cells in the presence of drug
Assay type: cell-based, Cryptosporidium parvum
Settings: electroporated (Nluc-transfected) C. parvum grown in paramomycin on HCT-8 host cells; FIG. 3D
From the text: Next, we performed transfections and then cultured the transfected parasites in the presence of paramomycin, a drug that reduces growth of C. parvum but not the mammalian host cell. […] (FIG. 3D). We also tested an Nluc plasmid that lacks the Cryptosporidium promoter but carries Toxoplasma flanking sequences instead. […] Lastly, we tested whether parasite vectors can transduce host cells by deliberately delivering plasmid DNA into the HCT-8 host cell cytoplasm by lipofection. […] Collectively these measurements confirm that Apicomplexa and mammals have divergent primary sequence elements that drive transcription and subsequent RNA processing. Cryptosporidium transfection therefore depends on the introduction of a parasite species specific vector into viable parasites. Moreover, passive DNA delivery into the host is not relevant for activity and host cells are not transfected even when DNA is deliberately introduced into the host. […]
For in vitro experiments, cells were scraped from T-25 flasks or 24-well plates and collected after 48 hours of incubation. […] After five minutes of incubation at room temperature, the cell lysate was added to white 96 well plates and luminescence was measured on a luminometer (BioTek Instruments, Inc., Winooski, Vt.). The read out was quantified in terms of relative luminescence units (RLU).

NC[C@@H]1O[C@H](O[C@H]2[C@@H](O)[C@H](O[C@@H]3[C@@H](O)[C@H](N)C[C@H](N)[C@H]3O[C@H]3O[C@H](CO)[C@@H](O)[C@H](O)[C@H]3N)O[C@@H]2CO)[C@H](N)[C@@H](O)[C@@H]1O [Paramomycin, paramomycin]
Nluc expression (luciferase activity): reduction of Nluc expression
